Measurements taken from PMC3465347, “Regulation of NF-κB Activation through a Novel PI-3K-Independent and PKA/Akt-Dependent Pathway in Human Umbilical Vein Endothelial Cells” (PLoS ONE, 2012).

Legend:
[1] = system: Akt phosphorylation in HUVECs; experiment: Akt phosphorylation western blot; assay type: cell-based, human
Description: (§1) Nuclear and cytoplasmic extracts were fractionated on SDS-PAGE with equal amount of proteins per well and transferred onto PVDF membranes and those membranes were incubated with appropriate primary antibodies and treated with HRP conjugated secondary antibodies followed by detection with DAB-H2O2 system. β-tubulin, α-actin and Lamin B1 were used as loading controls. Antibodies against NF-κBp65, phosphoNF-κBp65, IκBα, phosphoIκBα, IKK-β, Akt, phosphoAkt (Ser473) and phosphoAkt (Thr308) were used.

[2] = system: NF-κB p65 phosphorylation in endothelial cells; experiment: p65 phosphorylation western blot; assay type: cell-based, human; conditions: 400 µM pretreatment
Description: as §1

[3] = Aqueous solubility of MPG derivatives; assay type: physicochemical
Description: Stock solutions of MPG and its derivatives (Tables S1, S2, S3) were prepared either in dimethylsulphoxide (DMSO) or cell culture medium. MPG and its derivatives were diluted to working concentrations in cell culture medium.

IKK-β = molecular target: T1, IKK-β (Homo sapiens, UniProt O14920); experiment: Direct IKK-β kinase assay on immunoprecipitated IKK-β; assay type: biochemical; conditions: immunoprecipitated IKK-β incubated with MPTAG
T1 construct: Endogenous IKK complexes were immunoprecipitated in the following reaction mixtures; endogenous in cells; host or cells: HUVEC (uninduced and TNF-α-induced), anti-IKK-β immunoprecipitate
Description: In brief, confluent HUVECs were incubated with or without MPTAG and were stimulated with TNF-α (10 ng/ml) for 15 mins. The cells were washed and lysed in Lysis buffer containing 50 mM HEPES, pH 7.6, 10% glycerol, 1 mM sodium orthovanadate, 100 mM NaCl, 1% NP-40, 1 mM EDTA and protease inhibitor cocktail and allowed to swell on ice for 45 mins. Following centrifugation at 13,000 rpm for 45 mins, the supernatants were collected as “total cell extracts” and stored at −70°C. Immunoprecipitation was performed as per the instructions of Protein G immunoprecipitation kit (Sigma Aldrich, USA). Endogenous IKK complexes were immunoprecipitated in the following reaction mixtures: 100–300 µg of total cell extracts were incubated with 2–4 µg anti-IKK-β or PKAα antibody in 100 µl 1× IP buffer. After incubation for 16 h at 4°C with constant shaking, 50 µl of activated protein G beads were added and the mixture was incubated under rotation for an additional 3 h at 4°C.
Kinase assay was performed as previously described. Immunoprecipitates from 100 µg of total cell extracts were used for kinase assays. The reaction mixture consisted of kinase buffer (20 mM Tris Cl, pH 7.6, 1 mM EDTA, 1 mM sodium orthovanadate, 20 mM MgCl2, 2 mM DTT), 2 µg GST-IκBα(1–54), 5 µM ATP and 1 µCi [γ ^32P] ATP in a volume of 30 µl. […]

T1 sequence (O14920 whole entry): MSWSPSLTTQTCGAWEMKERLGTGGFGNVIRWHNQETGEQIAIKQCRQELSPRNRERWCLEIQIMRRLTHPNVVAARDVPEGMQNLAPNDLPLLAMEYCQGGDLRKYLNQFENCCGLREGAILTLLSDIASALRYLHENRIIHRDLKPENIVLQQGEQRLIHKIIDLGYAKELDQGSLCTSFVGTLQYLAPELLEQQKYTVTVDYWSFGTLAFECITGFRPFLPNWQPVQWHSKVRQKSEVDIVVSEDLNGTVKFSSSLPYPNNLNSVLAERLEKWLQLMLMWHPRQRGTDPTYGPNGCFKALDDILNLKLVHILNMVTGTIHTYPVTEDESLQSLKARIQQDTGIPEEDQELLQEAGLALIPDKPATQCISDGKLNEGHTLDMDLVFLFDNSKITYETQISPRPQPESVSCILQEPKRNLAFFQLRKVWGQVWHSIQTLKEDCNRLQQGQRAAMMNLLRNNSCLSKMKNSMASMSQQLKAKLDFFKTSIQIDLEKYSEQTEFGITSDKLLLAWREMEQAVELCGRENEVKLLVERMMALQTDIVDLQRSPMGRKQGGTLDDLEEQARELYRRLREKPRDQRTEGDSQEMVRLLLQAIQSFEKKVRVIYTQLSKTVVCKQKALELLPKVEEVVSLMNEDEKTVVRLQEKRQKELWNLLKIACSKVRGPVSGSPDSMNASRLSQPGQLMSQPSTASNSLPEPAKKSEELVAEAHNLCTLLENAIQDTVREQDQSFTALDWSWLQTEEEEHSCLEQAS

SMILES: CC(=O)OC[C@H]1O[C@@H](Oc2c(C)occc2=O)[C@H](OC(C)=O)[C@@H](OC(C)=O)[C@@H]1OC(C)=O [MPTAG, 2-methyl-pyran-4-one-3-O-β-D-2′,3′,4′,6′-tetra-O-acetyl glucopyranoside]
- protein levels of Akt ([1]; 400 µM): without affecting
- inhibitory effect of MPTAG on TNF-α-induced Akt phosphorylation when H-89 added prior ([1]; H-89 added prior to MPTAG): completely abolished
- TNF-α-induced phosphorylation of Akt at Ser473 ([1]; MPTAG 400 µM, TNF-α 30 mins): inhibited
- TNF-α-induced phosphorylation of Akt at Thr308 ([1]; MPTAG 400 µM, TNF-α 30 mins): inhibited
- TNF-α-induced Akt phosphorylation (Thr308), independently of wortmannin ([1]; with or without wortmannin before MPTAG): dose-dependently inhibited
- TNF-α-induced p65 phosphorylation in the cytoplasm [2]: inhibits p65 phosphorylation
- water solubility [3]: completely water soluble
- activity of IKK-β by direct interaction (IKK-β): did not affect
